Laboratory results: patent US20250282770A1, “BIOLUMINESCENT PROBES TO TRACK STEM CELLS IN VIVO” (THE BOARD OF TRUSTEES OF THE UNIVERSITY OF ILLINOIS, priority 2024, published 2025)

Assays:
4T1-Luc cells = assay: MTT cytotoxicity assay; type: cell-based, murine; conditions: up to the highest concentration tested (100 μM); 2 hours
Procedure: MTT Cytotoxicity Assay. 48-well plates were seeded with 100,000 cells per well ([…]) and incubated at 37° C. with 5% CO2 for 16 hours (˜75% confluent). Media was removed and fresh RPMI 1640 media with 10% FBS containing 100, 50 25, 12.5, 6.25, 3.13, 1.56, or 0 μM AlDeLuc (1% DMSO final v/v) was added. The media was removed after two hours and replaced with 500 μL of 18:1 mixture of FBS-free RPMI 1640 and (3-(4,5-dimethylthiazol-2-yl)-2,5-diphenyltetrazolium bromide (MT, 5 mg/mL stock in PBS). The cells were incubated for one hour at the same conditions before the media was removed. DMSO (500 μL/well) was added, and the absorbance was read at 555 nm on a microplate reader. Viability was calculated by the absorbance relative to the vehicle control. Values are reported as the mean±standard deviation (n=3).

ALDH1A1 = target: T1, ALDH1A1 (Homo sapiens, UniProt P00352); assay: Logic-gate activation of AlDeLuc by acid, ALDH1A1 and luciferase; dose dependence; type: biochemical
T1 construct: inferred from Ni-NTA purification; made in house; host or cells: E. coli BL21(DE3)
T1 sequence (P00352 1-501): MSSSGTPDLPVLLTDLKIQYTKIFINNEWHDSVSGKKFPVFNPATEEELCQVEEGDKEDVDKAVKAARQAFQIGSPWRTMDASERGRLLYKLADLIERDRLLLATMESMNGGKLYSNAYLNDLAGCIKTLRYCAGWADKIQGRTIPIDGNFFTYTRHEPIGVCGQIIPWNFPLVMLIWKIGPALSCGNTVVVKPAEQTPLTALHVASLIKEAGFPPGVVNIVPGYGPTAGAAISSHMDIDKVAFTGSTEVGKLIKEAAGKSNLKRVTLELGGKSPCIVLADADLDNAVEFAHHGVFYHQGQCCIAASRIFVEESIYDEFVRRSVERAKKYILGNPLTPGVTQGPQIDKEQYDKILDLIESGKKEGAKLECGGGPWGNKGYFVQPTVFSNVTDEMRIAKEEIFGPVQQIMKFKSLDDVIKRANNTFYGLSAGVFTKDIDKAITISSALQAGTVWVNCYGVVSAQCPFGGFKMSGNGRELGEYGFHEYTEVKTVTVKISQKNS
Procedure: Dose-dependent Enhancement of AlDeLuc. The response of ALDH1A1 (0.4 μM) against different concentrations of AlDeLuc was measured in a black 96-well plate and was monitored using the IVIS imaging system. Various stocks of AlDeLuc were generated so that 20 μL of the probe solution gave the desired concentration. Stocks were prepared by the following: AlDeLuc was first dissolved in DMSO followed by a 60 minute incubation in equal volume 1 M HCl. Subsequently, the reaction was neutralized with 1 M NaOH and diluted with PBS. To a black 96-well plate, TEA buffer (pH 7.4), NAD^+ (2.5 mM), and either […], 5 μM, 10 μM, or 50 μM of AlDeLuc was added. After 60 minutes, each well was treated with ATP-MgSO4 (45 μL, prepared by mixing 17.78 mM ATP-Mg and 35.56 mM MgSO4 in a 1:1 ratio in PBS buffer) and luciferase (5 μL, 1 mg/mL in PBS containing 10% glycerol) to initiate bioluminescence production. Light was collected immediately after mixing, and the signal enhancement was determined relative to control wells not treated with enzymes. The total volume of each well was 200 μL (TEA (pH 7.4) with 0.2% DMSO). All data reported as the mean±standard deviation (n=4).
Dose-dependent Activation of AlDeLuc by ALDH1A1. The response of AlDeLuc (5 μM) against different concentrations of ALDH1A1 was measured in a black 96-well plate and was monitored using the IVIS imaging system. To a black 96-well plate, PBS (pH 7.4), NAD^+, and either 0.05 μM, 0.1 μM, 0.4 μM, 2 μM, or 4 μM of ALDH1A1, was added AlDeLuc. Immediately after, each well was treated with ATP-MgSO4 (45 μL, prepared by mixing 17.78 mM ATP-Mg and 35.56 mM MgSO4 in a 1:1 ratio in PBS buffer) and luciferase (5 μL, 1 mg/mL in PBS containing 10% glycerol) to initiate bioluminescence production. Light was collected immediately after mixing, and the signal enhancement was determined relative to control wells not treated with enzymes. The total volume of each well was 200 μL (PBS (pH 7.4) with 0.2% DMSO). All data reported as the mean standard deviation (n=3).

[1] = Stability of AlDeLuc at acidic, neutral and alkaline pHs; type: physicochemical; conditions: 2 μM, then ALDH1A1 and luciferase
Procedure: Stability of AlDeLuc at Acidic, Neutral and Alkaline pHs. The stability of AlDeLuc (2 μM) to acidic, neutral and alkaline conditions were investigated in a black 96-well plate and monitored using the IVIS imaging system. AlDeLuc was incubated in 1 M HCl (acidic), 1 M NaCl (neutral, pH=7), or 1 M NaOH (alkaline) for one hour, neutralized, and diluted with 0.1 M potassium phosphate buffer (pH 7.4). To the black well-plate was added PBS (pH 7.4), NAD^+ (1 mM), ALDH1A1 (0.4 μM), and either the acidic-, neutral-, or alkaline-treated AlDeLuc. Immediately after, each well was treated with ATP-MgSO4 (45 μL, prepared by mixing 17.78 mM ATP-Mg and 35.56 mM MgSO4 in a 1:1 ratio in PBS buffer) and luciferase (5 μL, 1 mg/mL in PBS containing 10% glycerol) to initiate bioluminescence production. Light was collected immediately after mixing, and the signal enhancement was determined relative to control wells not treated with AlDeLuc. The total volume of each well was 200 μL (PBS (pH 7.4) with 0.2% DMSO). All data reported as the mean±standard deviation.

## CCN(CC)c1ccc2nc(C3=N[C@@H](C(OC)OC)CS3)sc2c1 [AlDeLuc, (S)-2-(4-(dimethoxymethyl)-4,5-dihydrothiazol-2-yl)-N,N-diethylbenzo[d]thiazol-6-amine]
4T1-Luc cells
  cell viability (MTT): nontoxic
ALDH1A1; AlDeLuc 5 μM, ALDH1A1 0 to 4 μM
  signal intensity versus amount of ALDH1A1: highest ALDH1A1 concentration showed the most intense signal
ALDH1A1; AlDeLuc 2 to 50 μM, ALDH1A1 0.4 μM
  signal intensity versus AlDeLuc concentration: concentration-dependent increase
ALDH1A1; luciferase 0.02 mg/mL
  bioluminescent signal when acidic conditions and ALDH1A1 applied separately, compared to both: significantly attenuated
[1]; 1 M NaCl (neutral) one hour
  bioluminescence (acetal unmasking): no bioluminescence
[1]; 1 M NaOH (alkaline) one hour
  bioluminescence (acetal unmasking): no bioluminescence
